The record followed here is patent US6541237B1, “A-1,4-glucan lyase and its use in the production of 1.5-androfructose” (Danisco A/S, priority 1994, dated 2003).

Data set [1] relates to α-1,4-glucan lyase. In words: Degradation studies: AF released by the lyase from various substrates. Format: biochemical, Gracilariopsis lemaneiformis. The note with it: for AF released: substrate 10 mg/ml, 10 mM HOAc-NaOAc pH 3.8, 40 min at 45° C., 100 ul. How it is done: Reaction conditions: The reaction mixture contained 10 mM of HOAc-NaOAc (pH 3.8). The substrate concentration was 10 mg/ml. The final volume was 100 ul after the addition of lyase and water. The reaction time was 40 min at 45° C.

Data set [2] relates to α-1,4-glucan lyase. Put plainly: Substrate specificity for oligosaccharides by Dionex HPLC. Format: biochemical. The note with it: 8 mg/ml substrate, 0.1M MES pH 6.3, 60 min at 30° C. How it is done:
The specificity of α-1,4-glucan lyase for different oligosaccharides was tested. […] The oligosaccharides were dissolved in H2O at a concentration of 8 mg/ml. The enzyme assay contained 150 μl substrate G2/G3/G4/G5/G6/G7, 120 μl 0.1M MES pH 6.3 and 30 μl purified enzyme. The reaction mixture was incubated for 60 min at 30° C. Afterwards the reaction was stopped by boiling for 3 min and 900 μl absolute ethanol was added for precipitation. After centrifugation at 20.000×g for 5 min at 4° C. the supernatant was transferred to a new eppendorf tube and lyophilized.
The freeze-dried samples were dissolved in 1000 μl H2O and were filtrated through a 0.22 μm Millipore filter before 25 μl of the sample was loaded on the Dionex HPLC.
Analyses were performed on a Dionex 4500i chromatography system consisting of a GPM-2 pump and a PED detector which was used in pulse-amperometric detection mode. The anion exchange columns were a CarboPac PA-100 (4×250 mm) and a CarboPac PA-100 guard column (3×25 mm) from Dionex. The eluent were 200 mM sodium hydroxide (A), 500 mM sodium acetate (B) and 18 M ohm de-ionized water (C). The pump was programmed in 2 different ways, method no. 1 and method no.

Data set [3] has as its system α-1,4-glucan lyase. Put plainly: Reversible and irreversible inhibitors of the lyase. Type of data set: biochemical, Gracilariopsis lemaneiformis. The settings on record: for decrease of lyase activity (inhibition): 0.1 M inhibitor; for inhibition (second, untitled table): lyase not stated.
In data set [4] the test system is α-1,4-glucan lyase.
Data set [5] relates to α-1,4-glucan lyase. Put plainly: Effect of different reaction media upon production of AF by the lyase. Type of data set: biochemical, Gracilariopsis lemaneiformis. The settings on record: reaction medium. From the text: The production of AF using either pure water or 0.85% NaCl as reaction medium decreased the yield.
For data set [6], the system named is α-1,4-glucan lyase. Put plainly: Effect of substrate on the stability of the lyase. Type of data set: biochemical. The note with it: soluble and immobilized enzyme system.
Target sequence in this assay (as listed by the source): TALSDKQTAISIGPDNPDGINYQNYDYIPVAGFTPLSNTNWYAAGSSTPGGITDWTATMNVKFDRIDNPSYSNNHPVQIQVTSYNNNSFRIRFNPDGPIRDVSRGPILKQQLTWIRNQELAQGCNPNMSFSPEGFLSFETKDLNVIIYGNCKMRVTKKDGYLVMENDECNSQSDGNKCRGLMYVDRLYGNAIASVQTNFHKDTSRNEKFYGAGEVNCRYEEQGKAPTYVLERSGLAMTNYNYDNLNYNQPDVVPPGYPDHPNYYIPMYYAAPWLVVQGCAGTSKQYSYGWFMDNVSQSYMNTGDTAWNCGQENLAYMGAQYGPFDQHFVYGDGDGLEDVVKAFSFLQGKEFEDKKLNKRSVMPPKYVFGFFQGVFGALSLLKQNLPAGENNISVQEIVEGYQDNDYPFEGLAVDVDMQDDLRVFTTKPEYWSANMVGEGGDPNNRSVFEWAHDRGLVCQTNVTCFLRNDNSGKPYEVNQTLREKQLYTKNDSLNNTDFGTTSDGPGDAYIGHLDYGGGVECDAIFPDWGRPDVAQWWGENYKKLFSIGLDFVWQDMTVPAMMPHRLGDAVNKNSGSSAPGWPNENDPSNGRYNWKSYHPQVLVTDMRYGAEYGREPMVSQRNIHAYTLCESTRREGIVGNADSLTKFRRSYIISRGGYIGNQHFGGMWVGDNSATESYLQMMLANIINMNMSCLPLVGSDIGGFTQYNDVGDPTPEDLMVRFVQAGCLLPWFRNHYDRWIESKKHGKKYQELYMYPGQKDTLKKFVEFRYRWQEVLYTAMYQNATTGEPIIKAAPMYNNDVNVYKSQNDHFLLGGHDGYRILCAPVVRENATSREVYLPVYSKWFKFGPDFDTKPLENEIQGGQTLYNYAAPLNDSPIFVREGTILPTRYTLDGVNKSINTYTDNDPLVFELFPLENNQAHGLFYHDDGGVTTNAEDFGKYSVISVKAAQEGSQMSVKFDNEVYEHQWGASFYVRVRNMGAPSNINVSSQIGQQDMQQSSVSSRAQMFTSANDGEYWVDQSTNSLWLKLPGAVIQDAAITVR
For data set [7], the system named is α-1,4-glucan lyase. Put plainly: Km of the lyase. Type of data set: biochemical, Gracilariopsis lemaneiformis. The note with it: substrate of the lyase.
Target sequence in this assay (as listed by the source): as above
Data set [8] relates to lyase and pullulanase. Put plainly: Cooperation of pullulanase and lyase in the production of AF. The settings on record: 2% substrate, 30° C., 1 day. Format: biochemical. The procedure:
The reaction mixture contained 0.3 ml 2% potato amylopectin (Sigma) in water or 0.3 ml 2% soluble starch (Merck), 2 μl lyase and 0.36 units pullulanase (BM) as indicated.
The reaction was carried out at 30° C. for 1 day. At the end of the reaction, samples were taken for AF and Glc analysis.

A short description of data set [9]: Isoelectric focusing of the α-1,4-glucan lyases. Type of data set: physicochemical. The note with it: isoelectrofocusing, pH gradient 3-9. From the text: The relative migration rates were estimated from native PAGE on gels with 8-25% gradient; the pI values were estimated by isoelectrofocusing on gels with a pH gradient of 3-9.
FIG. 2. Isoelectric focusing of the α-1,4-glucan lyases on a gel with a pH gradient of pH 3 to pH 9. The gel was stained with PhastGel Blue R.

Where [10] appears, read: lyase added, pullulanase omitted.
The mark [11] stands for this setting: lyase omitted, pullulanase added.

Take `OC[C@H]1O[C@H](O[C@H]2[C@H](O)[C@@H](O)C(O)O[C@@H]2CO)[C@H](O)[C@@H](O)[C@@H]1O` (mixture of isomers) [Maltose]: in data set [1] (in words), the “activity of the lyase towards maltosaccharides” value is reported as “low activity”. Besides, the AF released in data set [1] was found to be 657 nmol. In [2], the “1,5-anhydrofructose formation from substrate” value is “almost no 1,5-anhydrofructose was formed”. Also, the “decrease of lyase activity (inhibition)” value in data set [3] (substrate amylopectin 1% (10 mg/ml)) amounted to 73.4%; in data set [3] (substrate amylopectin 2%), 67.2%; in data set [3] (substrate glycogen 1% (10 mg/ml)), 48.8%; in data set [3] (substrate glycogen 2%) it was 49.7%. Further, the results for the “inhibition (second, untitled table)” value in data set [3] (substrate amylopectin (1%)) and in data set [3] (substrate glycogen (1%)) were 80% and 57%, respectively.

With `O=C(O)CN(CCN(CC(=O)O)CC(=O)O)CC(=O)O` [EDTA], the “effect on lyase activity” value in data set [4] (up to 20 mM in the reaction mixture) is listed as “little effect”.

Take `[Cl-].[Na+]` [NaCl]: the “increase of AF yield” value in data set [4] (0.85% (0.145 M) in the reaction mixture) is “up to 1 fold”.

Take `O` [Water]: the results for the AF yield in data set [5] (reaction time 1 day), in [5] (reaction time 3 days) and in data set [5] (reaction time 8 days) were 46 µmol, 128 µmol and 217 µmol, respectively.

Take Amylopectin: the AF released in [1] was 732 nmol. The “effect on stability of the lyase” value in [6] is given as “stabilizing effect”. Also, the Km in [7] was 3.76 mg/mL. Besides, the “AF Yield (%)” value amounted to 48.0% in data set [8] (setting [10]); 71.3% in data set [8] (lyase and pullulanase added); 0% in data set [8] (setting [11]). Moreover, the “Glc Yield (%)” value in [8] (setting [10]) was found to be 0%; in data set [8] (lyase and pullulanase added), 3.7%; in data set [8] (setting [11]) it was 0.33%.

Glycogen: the AF released in [1] worked out at 592 nmol. In addition, in [7], the Km came to 3.37 mg/mL.

B1: MV-lyase: lyase isolated from the fungus Morchella vulgaris, ATCC (protein)
chain: MAGLSDPLNFCKAEDYYAAAKGWSGPQKIIRYDQTPPQGTKDPKSWHAVNLPFDDGTMCVVQFVRPCVWRVRYDPSVKTSDEYGDENTRTIVQDYMTTLVGNLDIFRGLTWVSTLEDSGEYYTFKSEVTAVDETERTRNKVGDGLKIYLWKNPFRIQVVRLLTPLVDPFPIPNVANATARVADKVVWQTSPKTFRKNLHPQHKMLKDTVLDIIKPGHGEYVGWGEMGGIEFMKEPTFMNYFNFDNMQYQQVYAQGALDSREPLYHSDPFYLDVNSNPEHKNITATFIDNYSQIAIDFGKTNSGYIKLGTRYGGIDCYGISADTVPEIVRLYTGLVGRSKLKPRYILGAHQACYGYQQESDLHAVVQQYRDTKFPLDGLHVDVDFQDNFRTFTTNPITFPNPKEMFTNLRNNGIKCSTNITPVISIRDRPNGYSTLNEGYDKKYFIMDDRYTEGTSGDPQNVRYSFYGGGNPVEVNPNDVWARPDFGDNYDFPTNFNCKDYPYHGGVSYGYGNGTPGYYPDLNREEVRIWWGLQYEYLFNMGLEFVWQDMTTPAIHSSYGDMKGLPTRLLVTADSVTNASEKKLAIESWALYSYNLHKATFHGLGRLESRKNKRNFILGRGSYAGAYRFAGLWTGDNASTWEFWKISVSQVLSLGLNGVCIAGSDTGGFEPARTEIGEEKYCSPELLIRWYTGSFLLPWLRNHYVKKDRKWFQEPYAYPKHLETHPELADQAWLYKSVLEICRYWVELRYSLIQLLYDCMFQNVVDGMPLARSMLLTDTEDTTFFNESQKFLDNQYMAGDDILVAPILHSRNEVPGENRDVYLPLFHTWYPSNLRPWDDQGVALGNPVEGGSVINYTARIVAPEDYNLFHNVVPVYIREGAIIPQIQVRQWIGEGGPNPIKFNIYPGKDKEYVTYLDDGVSRDSAPDDLPQYREAYEQAKVEGKDVQKQLAVIQGNKTNDFSASGIDKEAKGYHRKVSIKQESKDKTRTVTIEPKHNGYDPSKEVGNYYTIILWYAPGFDGSIVDVSQATVNIEGGVECEIFKNTGLHTVVVNVKEVIGTTKSVKITCTTA
Regarding B1, the pI in data set [9] is given as 4.4.

B2: GLsc2-lyase: second lyase purified from Gracilariopsis lemaneiformis collected in Santa Cruz, Calif. (protein)
chain: TALSDKQTAISIGPDNPDGINYQNYDYIPVAGFTPLSNTNWYAAGSSTPGGITDWTATMNVKFDRIDNPSYSNNHPVQIQVTSYNNNSFRIRFNPDGPIRDVSRGPILKQQLTWIRNQELAQGCNPNMSFSPEGFLSFETKDLNVIIYGNCKMRVTKKDGYLVMENDECNSQSDGNKCRGLMYVDRLYGNAIASVQTNFHKDTSRNEKFYGAGEVNCRYEEQGKAPTYVLERSGLAMTNYNYDNLNYNQPDVVPPGYPDHPNYYIPMYYAAPWLVVQGCAGTSKQYSYGWFMDNVSQSYMNTGDTAWNCGQENLAYMGAQYGPFDQHFVYGDGDGLEDVVKAFSFLQGKEFEDKKLNKRSVMPPKYVFGFFQGVFGALSLLKQNLPAGENNISVQEIVEGYQDNDYPFEGLAVDVDMQDDLRVFTTKPEYWSANMVGEGGDPNNRSVFEWAHDRGLVCQTNVTCFLRNDNSGKPYEVNQTLREKQLYTKNDSLNNTDFGTTSDGPGDAYIGHLDYGGGVECDAIFPDWGRPDVAQWWGENYKKLFSIGLDFVWQDMTVPAMMPHRLGDAVNKNSGSSAPGWPNENDPSNGRYNWKSYHPQVLVTDMRYGAEYGREPMVSQRNIHAYTLCESTRREGIVGNADSLTKFRRSYIISRGGYIGNQHFGGMWVGDNSATESYLQMMLANIINMNMSCLPLVGSDIGGFTQYNDAGDPTPEDLMVRFVQAGCLLPWFRNHYDRWIESKKHGKKYQELYMYPGQKDTLKKFVEFRYRWQEVLYTAMYQNATTGEPIIKAAPMYNNDVNVYKSQNDHFLLGGHDGYRILCAPVVRENATSREVYLPVYSKWFKFGPDFDTKPLENEIQGGQTLYNYAAPLNDSPIFVREGTILPTRYTLDGVNKSINTYTDNDPLVFELFPLENNQAHGLFYHDDGGVTTNAEDFGKYSVISVKAAQEGSQMSVKFDNEVYEHQWGASFYVRVRNMGAPSNINVSSQIGQQDMQQSSVSSRAQMFTSANDGEYWVDQSTNSLWLKLPGAVIQDAAITVR
For B2, the pI in data set [9] was determined as 4.1.
